Measured values as given in a melting point compilation (Tetko et al.).

Structure (SMILES)	melting point [°C]
Cc1ccccc1N1CSc2nnc(-c3ccccc3)n2C1	199
CC(=O)N1C(=O)N(C(C)=O)C2C1N(C(C)=O)C(=O)N2C(C)=O (stereo not drawn)	234 to 238
CCOC(=O)c1c(NC(=O)CCl)sc2c1CCCC2	115 to 117
CC1(c2ccc(Oc3ccccc3)cc2)OC(=O)N(Nc2ccccc2)C1=O (stereo not drawn)	142
O=C(O)Cc1ccc(C(=O)CCl)s1	101 to 104
c1ccc2nc(-c3cc(-c4cnc5ccccc5n4)cc(-c4cnc5ccccc5n4)c3)cnc2c1	302
N#CC(=Cc1ccc([N+](=O)[O-])cc1)C(N)=S	311
COc1c(F)cc(CBr)cc1F	41
CC(C)CCNCCC(C)C	-44
CC(COc1ccc(C(C)(C)C)cc1)OS(=O)OCCCl (stereo not drawn)	-31.7
CN(C)S(=O)(=O)N(SC(F)(Cl)Cl)c1ccccc1	106
O=C(CCCl)N1CCc2ccccc21	83 to 85
CN(C)CCOCCN(C)C	-80
Cc1cc(Br)ncc1Br	38
Clc1nncc2ccccc12	111
Cc1cccc2ncccc12	19
CC(=O)c1ccc(N=C=O)cc1	34
C1CCCCCCCCCCCCCCC1	61
CCOC(=O)c1c(Cl)c(Cl)c(Cl)c(Cl)c1C(=O)O	94.5
OC1c2ccccc2CCc2ccccc21	92
c1ccc(CC(=NNc2ccccc2)/C(Cc2ccccc2)=N\Nc2ccccc2)cc1	181
C=Cc1c(Cl)cccc1Cl	89
IC12CC3CC(CC(C3)C1)C2	75.5
O=C(OC(=O)C(=Cc1ccccc1)Cc1ccccc1)C(=Cc1ccccc1)Cc1ccccc1	107 to 109
OCC1OC(OC2C(CO)OC(O)(CO)C2O)C(O)C(O)C1O (stereo not drawn)	176
Cn1nc(C=O)cc1-c1ccco1	62 to 64

Structure (SMILES)	melting point [°C]
c1ccc(-c2nnc(NC3=NCCN3)s2)cc1	192 to 194
COC(=O)c1ccc(Cl)c(Cl)c1	45
CCCCCCc1ccc2c(c1)CCC2	-34
O=CNC1CCCCC1	39.5
CC(=O)Oc1ccccc1C(C)=O	90
N#CCc1ccc(Cl)c(Cl)c1	40
N#CCCN1CCCCC1	-6.8
c1coc(P(c2ccco2)c2ccco2)c1	62
FC(Cl)CCl (stereo not drawn)	-60
NC(CS(=O)(=O)c1ccc(F)cc1)=NO	180 to 183
O=C1OC(O)c2cc(Cl)c(Cl)cc21 (stereo not drawn)	180
Cn1c(=O)c(C2=NNC(=O)C2=Cc2ccccc2)c(O)c2ccccc21	283
Cc1ccc([N+](=O)[O-])c(N)c1C	117 to 122
O=[N+]([O-])c1ccc2c(O)c(-c3ccc(-c4[nH]c5cc([N+](=O)[O-])ccc5c4O)cc3)[nH]c2c1	360
CC(C)C(=O)Cl	-90
C1=CC=CC=CC=C1	-4.7
O=C1CN(C(=O)OCc2ccccc2)CCN1	120
COC(=O)CCc1ccc(OC)c(O)c1	78
CC(=O)c1ccc[nH]1	90
O=C(C1CCNCC1)N1CCCC1	45 to 47
Nc1ccc(I)cc1C(=O)O	219 to 221
CN(C)Cc1ncccc1O	55 to 60
Nc1nn2c(C(F)(F)F)cc(=O)[nH]c2c1/N=N/c1ccc(O)cc1	268
CCN(CC)c1nc2ccccc2c(=O)n1-c1ccccc1	109
CC(C)CCBr	-112
O=C(O)C1Cc2ccccc2O1 (stereo not drawn)	117 to 118

Structure (SMILES)	melting point [°C]
CC(NC(=O)OCc1ccccc1)C(=O)O (racemic)	112 to 113
OCC1CC1	-60
Cc1c(C(C)OC(=O)CCC(=O)O)oc2ccc(C3=CC(=O)OC3)cc12 (stereo not drawn)	144
O=P(O)(O)OC1C(O)C(O)C(O)C(O)C1O (stereo not drawn)	195
CCCCCCCCCCCCOc1ccc(C(C)=O)cc1	44 to 47
COC(=O)c1ccc(Br)o1	64
COc1ccc(Cl)cc1C(=O)O	99
CC(C)CC1=CC(=Cc2ccc(-c3ccccc3)o2)C(=O)O1	75 to 76
O=c1cc(-c2ccccc2)oc2ccc3ccccc3c12	164
CCOC(=O)c1nn(-c2ccc(C)cc2)c(C)c1C(=O)c1noc(-c2cccc3ccccc23)c1S(=O)(=O)c1ccccc1	173
COc1ccc(S(=O)(=O)Cl)cc1F	79
NCc1ccccc1Sc1ccccc1CO	97
C/C=C/C(=O)OC	-42
NC(=O)Cc1cccs1	147
CC(=O)c1cc2cc3c4c(c2oc1=O)CCCN4CCC3	181 to 184
Nc1ccccc1CCc1ccccc1N	72 to 77
O=C(C=Cc1ccco1)C=Cc1ccco1	60.5
N#CCSc1nc(=O)[nH]c2c1CCCC2	223 to 225
CC(C)(C)N(NC(=O)c1ccccc1)C(=O)c1cc(Cl)ccc1Cl	214
Clc1cccnc1Br	60
NNC(=O)c1ccc(C(F)(F)F)cc1	121
O=C(Nc1cccnc1)C(F)(F)C(F)(F)C(F)(F)C(F)(F)C(F)(F)C(F)(F)C(F)(F)C(F)(F)F	145
O=C(Nc1nc(-c2ccc(Br)cc2)cs1)c1ccccc1	115
CC(O[S+]([O-])C(C)(C)C)C(O)(c1ccccc1)c1ccccc1 (stereo not drawn)	135 to 137
N#CC(Cc1ccc([N+](=O)[O-])cc1)c1ccccc1 (stereo not drawn)	134
OCCCC#CC#CCCCO	45.5 to 47

Structure (SMILES)	melting point [°C]
O=Cc1c2ccccc2cc2ccccc12	105
C[C@@H](O)c1ccncc1	68 to 70
CCOC(=O)C1=C(c2ccccc2)NC(=O)NC1c1ccccc1 (stereo not drawn)	172
BrCc1ccc2nsnc2c1	91
CC12CCC3C(CCC4CC(OCc5ccccc5)CCC43C)C1CCC2O (stereo not drawn)	225
N#Cc1c(C2CCCCC2)[nH]c(=S)[nH]c1=O	300
CC(CO)c1c(O)c(O)c2c(c1O)C(=O)C(=O)C1C(C)(C)CCCC21C (stereo not drawn)	239
C[C@]12C=CC(=O)C=C1C(=O)C[C@@H]1[C@@H]2CC[C@@]2(C)[C@H]1CCC21OCCO1	207
O=[N+]([O-])c1cc(-c2ccccc2)ccc1O	67
O=c1cc(NC2CCCCC2)c2ccccc2o1	194
CC(C)c1cc(C(C)C)c(S(=O)(=O)n2cncn2)c(C(C)C)c1	111
COC=C(C(=O)OC)c1ccccc1Oc1cc(Oc2ccccc2C#N)ncn1	116
COC(=O)C1=C(C(=O)OC)C(=O)C(=C2C=Cc3ccccc3N2)C1=O	362 to 363
CC(O)(P(=O)(O)O)P(=O)(O)O	199
Nc1nc(=O)c2[nH]c(=S)[nH]c2[nH]1	300
CCCCCCC=CCC(=O)O	18
COC(=O)C1(C(=O)OC)Cc2ccc(C)cc2C(=O)O1	120 to 121
C=C1C(C)CCC2(C)C3=C(C(=O)C4(CC4C)C(O)C3=O)C(OC(C)=O)C(O)C12 (stereo not drawn)	195 to 196
c1ccc(-c2ccccc2-c2ccccc2-c2ccccc2)cc1	118
O=C(O)C(=O)c1cccs1	89 to 95
O=C1/C(=N\Nc2cccc(F)c2)C(C(F)(F)F)=NN1c1ccccc1	105 to 107
CC1CCCCC1NC(=O)Nc1ccccc1 (stereo not drawn)	136
c1ccc(P(c2ccccc2)c2ccc3ccccc3c2-c2c(P(c3ccccc3)c3ccccc3)ccc3ccccc23)cc1	283
C=C(C)C1CCC(C)CC1O (stereo not drawn)	78
CCOC(=O)OCC	-43
O=S(=O)(c1ccc(N=C=S)cc1)c1ccc(N=C=S)cc1	187 to 189

Structure (SMILES)	melting point [°C]
N#CC(c1ccccc1)N1CCOCC1 (stereo not drawn)	69 to 71
COc1ccc(Br)cc1F	16
CC1(C)C2CC3C(c4ccccc4)(C2=C(c2ccccc2)c2ccccc2)C31C (stereo not drawn)	164
O=C(O)c1cc(Oc2ccc(C(F)(F)F)cc2Cl)ccc1[N+](=O)[O-]	155
CC(C)(C)OC(=O)N1CCCC(=O)C1	38
CCOC(=O)c1cc(-c2cccs2)on1	48 to 51
O=C(Cl)c1cnc2ccccc2n1	100
N#CCc1cccc(I)c1	34
COC(=O)C(Cc1ccc(O)cc1)NC(=O)OC(C)(C)C (stereo not drawn)	107
CCCCCCCCCCCCCCCCI	22
O=C(O)c1cnccn1	222 to 225
C=C1C(=O)C23C(OC(C)=O)CC4C(C)(C)CCC(OC(C)=O)C4(C)C2C(OC(C)=O)CC12OC(C)(C)OC23 (stereo not drawn)	259
O=C(O)c1ccc(OC2CCOCC2)cc1	185 to 186
COC[C@H]1CCCN1C(=S)SCC(=O)c1ccc(Br)cc1	89.5
Cc1ccc(-c2ccc3c(c2)C=CC(=C2C(=O)c4ccccc4C2=O)N3)cc1	241 to 242
CCCOCC(C)OCC(C)O (stereo not drawn)	7.08
COc1c(Br)cc(C(=O)O)cc1Br	224 to 226
O=C(O)CSc1ccc(F)cc1	78
Oc1cccc(Cl)n1	130
O=C(c1ccc(Cl)cc1)c1noc(-c2ccc3ccccc3c2)c1S(=O)(=O)c1ccccc1	135
c1ccc2c(c1)Oc1nc3ccccc3nc1O2	256
CC(O)C(O)(c1ccccc1)c1ccccc1 (stereo not drawn)	92
O=C(Nc1ccc(Cl)cc1)Nc1ccc(Cl)c(C(F)(F)F)c1	214
NC(=S)NC1CCCCC1	162
